Measurements: the NIST ThermoML archive (doi:10.1021/je060271a)

Details: 303.14 K, Liquid, Vibrating tube method

CCCCCCC(=O)OCC(COC(=O)CCCCCC)(COC(=O)CCCCCC)COC(=O)CCCCCC [pentaerythritol tetraheptanoate]
Details	mass density [kg/m3]
163.7 kPa	970.9
201.8 kPa	970.9
226 kPa	970.8
241.8 kPa	970.9
250.8 kPa	970.9
258.8 kPa	970.8
267.9 kPa	970.9
279.3 kPa	971
289.8 kPa	970.8
301.4 kPa	970.9
315.8 kPa	970.9
328.9 kPa	970.9
342.6 kPa	970.8
354.2 kPa	971
366.8 kPa	970.9
380 kPa	971
397.2 kPa	971
412.5 kPa	971
432.5 kPa	970.9
450.7 kPa	970.9
470.3 kPa	971
496.8 kPa	971
520.4 kPa	971.1
547 kPa	971.1
581.4 kPa	970.9
613 kPa	971.2
645.8 kPa	971.1
676.4 kPa	971.1
706.7 kPa	971.2
734.4 kPa	971.2
762.1 kPa	971.2
785 kPa	971.2
807.4 kPa	971.1
827.2 kPa	971.2
847.6 kPa	971.2
869.1 kPa	971.2
895.8 kPa	971.3
919.6 kPa	971.2
944.3 kPa	971.2
969.8 kPa	971.3
1002.7 kPa	971.3
1031.7 kPa	971.4
1063.1 kPa	971.4
1101.5 kPa	971.3
1163.5 kPa	971.4
1217.5 kPa	971.4
1278.3 kPa	971.6
1312.2 kPa	971.5
1337.9 kPa	971.6
1347.4 kPa	971.5
1357.1 kPa	971.5
1376.9 kPa	971.5
1461 kPa	971.6
1578.5 kPa	971.7
1661.5 kPa	971.6
1692.7 kPa	971.7
1725.9 kPa	971.9
1765.8 kPa	971.8
1800.2 kPa	971.8
1836.8 kPa	971.9
1873.8 kPa	971.9
1919.1 kPa	972
1958.5 kPa	971.8
2006.7 kPa	971.9
2049 kPa	972.1
2092.9 kPa	971.9
2137.7 kPa	972.1
2193.4 kPa	972
2240.2 kPa	972.1
2293.3 kPa	972.3
2315.9 kPa	972.1
2329.2 kPa	972.2
2344.7 kPa	972.2
2358.2 kPa	972.3
2371.9 kPa	972.1
2388.4 kPa	972.3
2402.1 kPa	972.3
2416.3 kPa	972.3
2433 kPa	972.3
2447.2 kPa	972.3
2464.4 kPa	972.2
2478.9 kPa	972.3
2494 kPa	972.2
2508.9 kPa	972.2
2528 kPa	972.2
2539.8 kPa	972.2
2558.1 kPa	972.4
2573.1 kPa	972.3
2592.1 kPa	972.3
2607.7 kPa	972.4
2623.3 kPa	972.3
2639.6 kPa	972.3
2658.8 kPa	972.5
2675.1 kPa	972.3
2691.8 kPa	972.4
2711.7 kPa	972.4
2728.4 kPa	972.4
2745.4 kPa	972.5
2766 kPa	972.5
2783.2 kPa	972.6
2800.7 kPa	972.5
2821.5 kPa	972.6
2839.7 kPa	972.5
2857.4 kPa	972.6
2879.2 kPa	972.5
2897.6 kPa	972.5
2916.3 kPa	972.5
2935.4 kPa	972.5
2957.6 kPa	972.5
2976.7 kPa	972.5
2995.9 kPa	972.5
3019.1 kPa	972.7
